Data set [1] in a line: Toxicity determined in mice, oral and intraperitoneal administration. Format: in vivo. As to the method: The toxicity was determined in mice for various ways of administration.
Data set [2] concerns arrhythmias in mice subjected to chloroform anesthesia. Kind of data set: Arrhythmias in mice subjected to chloroform anesthesia. Format: in vivo. As to conditions: intraperitoneally, 100 mg/kg.
The subject of data set [3] is edema of a rat's foot induced by carrageenan. Briefly: Edema of a rat's foot induced by carrageenan. The format is in vivo. As to conditions: orally, 200 mg/kg.
Data set [4] deals with right auricle of a guinea pig. Kind of data set: Chronotropic effect induced by histamine on the spontaneously beating right auricle of a guinea pig. As to conditions: Cavia porcellus, 100 microg/ml, 5 microg/ml of histamine.
Another data set has as its system GABA transaminase. Briefly: Action on GABA transaminase, concluded from second administration of bicuculline. The format is in vivo. To be noted: concluded from lack of inhibition of convulsions at second bicuculline administration 5 hours later.
Data set [5] concerns convulsions induced by bicuculline. Briefly: Convulsions induced by injection of bicuculline. Format: in vivo.

As a reminder, the inhibition is the percentage by which the read-out fell short of the control. A low value points to little suppression. As for `CCN(CC)CC1CN=C(NC(=O)Nc2ccccc2)O1` (centres unmarked) [Example 1, N-(5-diethylaminomethyl-2-oxazolin-2-yl)-N'-phenylurea], the mortality result in data set [1] (intraperitoneally at 200 mg/kg) and in data set [1] (orally at 300 mg/kg) was “did not cause any mortality” in each case. For the same compound, the appearance of arrhythmias entry in data set [2] is given as “prevented the appearance of arrhythmias”. The “inhibition of edema of a rat's foot induced by carrageenan” value in data set [3] is 51%. In data set [4], the inhibition at 100 µg/mL is over 50%.

As for `O=C(NC1=NCC(CN2CCCCC2)O1)Nc1ccccc1` (centres unmarked) [Example 2, N-Phenyl-N'-(5-piperidinomethyl-2-oxazoline-2-yl)urea], the mortality result in data set [1] (intraperitoneally at 200 mg/kg) and in data set [1] (orally at 300 mg/kg) was “did not cause any mortality” each time. In addition, the appearance of arrhythmias entry in data set [2] is on record as “prevented the appearance of arrhythmias”.

For the compound `O=C(NC1=NCC(CN2CCc3ccccc3C2)O1)Nc1ccccc1` (centres unmarked) [Example 3], the mortality result in data set [1] (intraperitoneally at 200 mg/kg) and in data set [1] (orally at 300 mg/kg) was “did not cause any mortality” each time. Moreover, the “action on GABA transaminase” value in the data set on GABA transaminase is listed as “does not act on the GABA transaminase”. Also, the type of activity entry in data set [5] (concluded from the bicuculline convulsion tests) is reported as “direct gabergic type”. For the same compound, the “inhibition of convulsions induced by bicuculline” value in data set [5] (intraperitoneally, 80 mg/kg, 0.5 mg/kg of bicuculline 30 minutes later) was “caused an inhibition of convulsions”. The “inhibition of convulsions induced by a second administration of bicuculline” value in data set [5] (intraperitoneally, 80 mg/kg, second administration of bicuculline 5 hours later) was “no longer inhibits convulsions”.

For the origin of these results see patent publication US4499090A, “N-(5-aminomethyl-2-oxazolin-2-yl)-N'-phenylureas, compositions and use” (Societe Cortial, S.A., priority 1982, dated 1985).
